Test results reported in ChEMBL document CHEMBL4842343, “1,10-Seco-Eudesmane sesquiterpenoids as a new type of anti-neuroinflammatory agents by suppressing TLR4/NF-κB/MAPK pathways” (Eur J Med Chem, 2021).
Activity calls are given as the source filed them. No cut-off for these calls is given here.

Key:
[1] = test system: BV-2; assay: Inhibition of TLR4/NF-kappaB signalling pathway in LPS- stimulated mouse BV-2 cells assessed as reduction in MyD88 expression at 0.3 to 10 uM measured after 24 hrs by western blot analysis; format: cell-based; settings: dose 0.3-10 µM
[2] = Inhibition of iNOS expression in LPS-stimulated mouse BV-2 cells at 10 uM measured after 24 hrs by western blot analysis relative to control; format: functional
[3] = test system: BV-2; assay: Inhibition of COX-1 expression in LPS-stimulated mouse BV-2 cells at 1 to 10 uM measured after 24 hrs by western blot analysis; format: functional, cell-based; settings: dose 1-10 µM
[4] = test system: BV-2; assay: Antineuroinflammatory activity in LPS- stimulated mouse BV-2 cells assessed as conversion of microglia from M1 to M2 phenotype macrophages by measuring IL-10 production at 1 uM measured after 24 hrs by ELISA; format: functional, cell-based
[5] = Potency indes, ratio of OABC to test compound for Inhibition of iNOS expression in LPS-stimulated mouse BV-2 cells at 10 uM measured after 24 hrs by western blot analysis; format: functional
[6] = test system: BV-2; assay: Antineuroinflammatory activity in LPS- stimulated mouse BV-2 cells assessed as conversion of microglia from M1 to M2 phenotype macrophages by measuring arginase-1 level at 10 uM measured after 24 hrs by ELISA; format: functional, cell-based
[7] = Potency index, ratio of OABC EC50 to test compound EC50 for inhibition of LPS-induced NO production in mouse BV-2 cells incubated for 24 hrs by Griess reagent based assay; format: functional
[8] = test system: BV-2; assay: Inhibition of TLR4/NF-kappaB signalling pathway in LPS-stimulated mouse BV-2 cells assessed as decrease in CD14 cell surface expression at 10 uM pretreated for 1 hr followed by LPS stimulation and measured after 24 hrs by […] (reference value: 27.2%); format: cell-based; set-up: scale not given: the % may be the effect or the level left; settings: time 25.0 hrs
[9] = test system: BV-2; assay: Inhibition of NF-kappaB p65 translocation in LPS-stimulated mouse BV-2 cells assessed as distribution of NF-kappaB p65 in nucleus and cytoplasm at 3 uM pretreated for 1 hr followed by LPS stimulation measured after 24 hrs by DAPI staining based immunofluorescence assay; format: cell-based; settings: time 25.0 hrs
[10] = test system: BV-2; assay: Inhibition of PGE2 production in mouse BV-2 cells at 10 uM measured after 24 hrs by ELISA; format: functional, cell-based
[11] = test system: BV-2; assay: Cytotoxicity against LPS-stimulated mouse BV-2 cells assessed as reduction in cell viability at 10 uM measured after 24 hrs by MTT assay relative to control; format: cell-based; settings: bv-2, 24 h
[12] = test system: BV-2; assay: Inhibition of COX-1 expression in mouse BV-2 cells at 10 uM measured after 24 hrs by western blot analysis; format: functional, cell-based
[13] = test system: BV-2; assay: Inhibition of TNF-alpha production in LPS stimulated mouse BV-2 cells measured after 24 hrs by ELISA; format: functional, cell-based; settings: dose 1-10 µM
[14] = test system: BV-2; assay: Inhibition of PGE2 production in LPS- stimulated mouse BV-2 cells measured after 24 hrs by ELISA; format: functional, cell-based; settings: dose 1-10 µM
[15] = test system: BV-2; assay: Inhibition of iNOS expression in LPS-stimulated mouse BV-2 cells measured after 24 hrs by western blot analysis; format: functional, cell-based; settings: dose 1-10 µM
[16] = test system: BV-2; assay: Inhibition of TLR4/NF-kappaB signalling pathway in mouse BV-2 cells assessed as increase in CD14 cell surface expression at 10 uM pretreated for 1 hr and measured after 24 hrs by flow cytometry analysis (Rvb= 3.8%); format: cell-based; set-up: scale not given: the % may be the effect or the level left; settings: time 25.0 hrs
[17] = target: MAP kinase p38 (Mus musculus) (UniProt P47811+O08911+Q9WUI1+Q9Z1B7); assay: Inhibition of p38 MAPK phosphorylation in LPS-stimulated mouse BV-2 cells measured after 2 hrs by western blot analysis; format: cell-based; settings: dose 0.3-10 µM
[18] = test system: BV-2; assay: Inhibition of ERK phosphorylation in LPS-stimulated mouse BV-2 cells at 0.3 to 10 uM measured after 2 hrs by western blot analysis; format: cell-based; settings: dose 0.3-10 µM
[19] = test system: BV-2; assay: Antineuroinflammatory activity in LPS- stimulated mouse BV-2 cells assessed as fold increase in HO-1 expression at 10 uM measured after 24 hrs by immunoblotting analysis relative to control; format: functional
[20] = test system: BV-2; assay: Inhibition of COX-2 expression in mouse BV-2 cells at 10 uM measured after 24 hrs by western blot analysis; format: functional, cell-based
[21] = Effective permeability of the compound in PBS/EtOH buffer (9:1) at […] after 10 hrs by HPLC-UV based PAMPA-BBB assay; format: ADME; settings: read-out: permeability
[22] = test system: BV-2; assay: Inhibition of TNF-alpha production in mouse BV-2 cells at 10 uM measured after 24 hrs by ELISA; format: functional, cell-based
[23] = test system: BV-2; assay: Antineuroinflammatory activity in LPS- stimulated mouse BV-2 cells assessed as upregulation of HO-1 expression measured after 24 hrs by immunoblotting analysis; format: functional, cell-based; settings: dose 1-10 µM
[24] = test system: BV-2; assay: Inhibition of TLR4/NF-kappaB signalling pathway in LPS- stimulated mouse BV-2 cells assessed as reduction in IRAK1 expression measured after 24 hrs by western blot analysis; format: cell-based; settings: dose 0.3-10 µM
[25] = test system: BV-2; assay: Inhibition of COX-2 expression in LPS-stimulated mouse BV-2 cells measured after 24 hrs by western blot analysis; format: functional, cell-based
[26] = Inhibition of LPS-induced NO production in mouse BV-2 cells incubated for 24 hrs by Griess reagent based assay; format: functional, cell-based; settings: Mus musculus, BV-2, 24 h; read-out: EC50
[27] = test system: BV-2; assay: Potency indes, ratio of OABC to test compound for inhibition of COX-2 expression in LPS-stimulated mouse BV-2 cells at 10 uM measured after 24 hrs by western blot analysis; format: functional
[28] = Inhibition of iNOS expression in mouse BV-2 cells at 10 uM measured after 24 hrs by western blot analysis relative to control; format: functional

For C=C1C(=O)O[C@@H]2CC(CBr)=C([C@@H](C)CCCOC(C)=O)[C@@H](OC(C)=O)[C@H]12, the inhibition [1] was “inactive”, the inhibition at 10 µM [2] was 11.2% and the inhibition [3] was “inactive”. For the same compound, the Activity [4] was “Active”, the “fold change (FC)” value [5] was 4 and the Activity [6] was “Active”. For the same compound, the “Ratio EC50” value [7] was 6, the Activity [8] was 9.9% and the inhibition [9] was “Active”. For the same compound, the inhibition [10] was “inactive”, the Activity [11] was 90.6% and the inhibition [12] was “inactive”. For the same compound, the inhibition [13] was “Dose-Dependent Effect”, the inhibition [14] was “Dose-Dependent Effect” and the inhibition [15] was “Dose-Dependent Effect”. For the same compound, the Activity [16] was 10.6%, the Activity [17] was “Dose-Dependent Effect” and the inhibition [18] was “inactive”. The “fold change (FC)” value [19] was 2.8, the inhibition [20] was “Active” and the Papp at 10 h [21] was 6.5 ×10⁻⁶ cm/s. For the same compound, the inhibition [22] was “inactive”, the Activity [23] was “Dose-Dependent Effect” and the inhibition [24] was “Dose-Dependent Effect”. The inhibition [25] was “Dose-Dependent Effect”, the EC50 [26] was 700 nM and the “fold change (FC)” value [27] was 4. The inhibition at 10 µM [28] was 12.2%.
